Measured values as given in patent US11117883B2 (Ariad Pharmaceuticals, Inc., priority 2016, dated 2021).

Experiments:
Test in all cases: c-Kit assay: Ba/F3 KIT mutant viability (Cell Titer-Glo, 72 hours)
Format in all cases: cell-based
[1] = molecular target: T1, BAF3 FL KIT EX11DEL/V654A (Homo sapiens, UniProt P10721, V654A, cells depend on it, form not given); details: viability after 72 hours
T1 construct: "BAF3 FL KIT EX11DEL/ V654A"
Method: (§1) KIT cDNAs were synthesized by GenScript and cloned into the pLVX-IRES-Puro vector (Clontech). Viral particles were produced by transfecting pLVX-IRES-puro vectors containing KIT mutant genes into HEK293 cells (Invitrogen) using the Trans-Lentiviral ORF Packaging Kit (Thermo Scientific). 48 hours post-transfection, virus-containing supernatants were harvested and incubated for another 48-72 hours with parental Ba/F3 cells (DSMZ) in the presence of 10 ng/mL […] (R&D Systems). Transduced Ba/F3 cells were then selected by IL-3 withdrawal and puromycin (0.5-1 μg/mL, Invitrogen).
(§2) Cell lines (i.e., EX11DEL, EX11DEL/D816H, EX11DEL/T670I, and EX11DEL/V654A) were plated into 384 well plates using RPMI 1640 supplemented with 10% FBS at densities that produced linear growth and incubated at 37° C. in 5% (v/v) CO2. Cells were treated with eight concentrations of compound over a 4-fold dilution (10 μM to 0.61 nM) and viability was assessed using Cell Titer-Glo assay (Promega) after 72 hours. Data were plotted as percent viability relative to vehicle-treated cells. Dose-responses curves were generated and used to calculate IC50 values.

[2] = molecular target: T2, BAF3 FL KIT EX11DEL/T6701 (Homo sapiens, UniProt P10721, T670I, cells depend on it, form not given); details: EX11DEL/T6701, viability after 72 hours
T2 construct: "BAF3 FL KIT EX11DEL/ T6701"
T2 sequence (P10721 with tags, fused parts or gaps DEL557-558/T670I, form open): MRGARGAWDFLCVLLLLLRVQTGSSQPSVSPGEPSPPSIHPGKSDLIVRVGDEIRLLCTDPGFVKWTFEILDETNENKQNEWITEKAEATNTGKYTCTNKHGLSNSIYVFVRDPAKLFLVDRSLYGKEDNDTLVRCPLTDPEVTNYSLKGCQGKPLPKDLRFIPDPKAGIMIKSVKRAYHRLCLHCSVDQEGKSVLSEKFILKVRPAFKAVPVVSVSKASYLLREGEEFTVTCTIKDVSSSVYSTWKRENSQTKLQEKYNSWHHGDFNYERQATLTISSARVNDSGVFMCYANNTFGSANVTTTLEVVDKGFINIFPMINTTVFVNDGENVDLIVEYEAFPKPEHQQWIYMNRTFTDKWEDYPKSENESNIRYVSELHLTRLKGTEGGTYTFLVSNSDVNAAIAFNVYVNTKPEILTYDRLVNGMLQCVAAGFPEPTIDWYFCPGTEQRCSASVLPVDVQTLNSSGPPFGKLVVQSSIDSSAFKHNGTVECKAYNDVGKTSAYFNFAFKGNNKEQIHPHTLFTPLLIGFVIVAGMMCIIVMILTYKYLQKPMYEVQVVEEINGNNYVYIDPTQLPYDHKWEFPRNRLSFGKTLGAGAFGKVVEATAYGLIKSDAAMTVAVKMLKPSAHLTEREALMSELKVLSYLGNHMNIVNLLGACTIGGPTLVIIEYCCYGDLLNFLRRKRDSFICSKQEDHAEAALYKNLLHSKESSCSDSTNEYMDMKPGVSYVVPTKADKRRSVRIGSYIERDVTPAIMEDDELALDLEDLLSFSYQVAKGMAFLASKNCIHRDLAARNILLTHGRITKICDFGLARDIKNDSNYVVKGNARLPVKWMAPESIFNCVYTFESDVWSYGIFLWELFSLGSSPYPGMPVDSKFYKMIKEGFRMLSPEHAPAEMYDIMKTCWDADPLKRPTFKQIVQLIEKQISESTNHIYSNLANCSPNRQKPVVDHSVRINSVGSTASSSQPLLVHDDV
Method: as §1, §2

BAF3 FL KIT EX11DEL = molecular target: T3, BAF3 FL KIT EX11DEL (Homo sapiens, UniProt P10721, cells depend on it, form not given); details: viability after 72 hours
T3 construct: "BAF3 FL KIT EX11DEL"
T3 sequence (P10721 with tags, fused parts or gaps DEL557-558): as the sequence (P10721 with tags, fused parts or gaps DEL557-558/T670I, form open) above, with I668T counted along it
Method: as §1, §2

[3] = molecular target: T4, BAF3 FL KIT EX11DEL/D816H (Homo sapiens, UniProt P10721, D816H, cells depend on it, form not given); details: viability after 72 hours
T4 construct: "BAF3 FL KIT EX11DEL/ D816H"
T4 sequence (P10721 with tags, fused parts or gaps DEL557-558/D816H, form open): as the sequence (P10721 with tags, fused parts or gaps DEL557-558/T670I, form open) above, with I668T, D814H counted along it
Method: as §1, §2

T1 sequence (P10721 with tags, fused parts or gaps DEL557-558/V654A, form open): as the sequence (P10721 with tags, fused parts or gaps DEL557-558/T670I, form open) above, with V652A, I668T counted along it

Compound: Cc1ccc(C(=O)Nc2cc(C(F)(F)F)ccn2)cc1C#Cc1ccc2c(c1)ncn2-c1cnn(C)c1 [Compound I-19, 4-methyl-3-((1-(1-methyl-1H-pyrazol-4-yl)-1H-benzo[d]imidazol-5-yl)ethynyl)-N-(4-(trifluoromethyl)pyridin-2-yl)benzamide]
- GI50 [1]: 0.01 to 0.05 µM
- GI50 [2]: < 0.01 µM
- GI50 (BAF3 FL KIT EX11DEL): < 0.01 µM
- GI50 [3]: 0.01 to 0.05 µM

Compound: COCCn1cc(-n2cnc3cc(C#Cc4cc(NC(=O)c5cc(C(F)(F)F)ccn5)ccc4C)ccc32)cn1 [Compound I-38, N-(3-((1-(1-(2-methoxyethyl)-1H-pyrazol-4-yl)-1H-benzo[d]imidazol-5-yl)ethynyl)-4-methylphenyl)-4-(trifluoromethyl)picolinamide]
- GI50 [1]: 0.01 to 0.05 µM
- GI50 [2]: 0.01 to 0.05 µM
- GI50 (BAF3 FL KIT EX11DEL): < 0.01 µM
- GI50 [3]: 0.05 to 0.1 µM

Compound: Cc1ccc(C(=O)Nc2cc(C(F)(F)F)ccn2)cc1C#Cc1ccc2c(c1)ncn2-c1cn(C)nn1 [Compound I-24, 4-methyl-3-((1-(1-methyl-1H-1,2,3-triazol-4-yl)-1H-benzo[d]imidazol-5-yl)ethynyl)-N-(4-(trifluoromethyl)pyridin-2-yl)benzamide]
- GI50 [1]: 0.01 to 0.05 µM
- GI50 [2]: < 0.01 µM
- GI50 (BAF3 FL KIT EX11DEL): < 0.01 µM
- GI50 [3]: 0.01 to 0.05 µM

Compound: Cc1ccc(C(=O)Nc2cc(C(F)(F)F)ccn2)cc1C#Cc1ccc2c(c1)ncn2-c1cnn(CCO)c1 [Compound I-31, 3-((1-(1-(2-hydroxyethyl)-1H-pyrazol-4-yl)-1H-benzo[d]imidazol-5-yl)ethynyl)-4-methyl-N-(4-(trifluoromethyl)pyridin-2-yl)benzamide]
- GI50 [1]: 0.01 to 0.05 µM
- GI50 [2]: < 0.01 µM
- GI50 (BAF3 FL KIT EX11DEL): < 0.01 µM
- GI50 [3]: 0.01 to 0.05 µM

Compound: Cc1ccc(NC(=O)c2cc(C(F)(F)F)ccn2)cc1C#Cc1ccc2c(c1)ncn2-c1cn(C)nn1 [Compound I-36, N-(4-methyl-3-((1-(1-methyl-1H-1,2,3-triazol-4-yl)-1H-benzo[d]imidazol-5-yl)ethynyl)phenyl)-4-(trifluoromethyl)picolinamide]
- GI50 [1]: 0.01 to 0.05 µM
- GI50 [2]: 0.01 to 0.05 µM
- GI50 (BAF3 FL KIT EX11DEL): < 0.01 µM
- GI50 [3]: 0.01 to 0.05 µM

Compound: Cn1cc(-n2cnc3cc(C#Cc4cc(NC(=O)c5cc(C(F)(F)F)ccn5)ccc4F)ccc32)cn1 [Compound I-52, N-(4-fluoro-3-((1-(1-methyl-1H-pyrazol-4-yl)-1H-benzo[d]imidazol-5-yl)ethynyl)phenyl)-4-(trifluoromethyl)picolinamide]
- GI50 [1]: 0.05 to 0.1 µM
- GI50 [2]: < 0.01 µM
- GI50 (BAF3 FL KIT EX11DEL): < 0.01 µM
- GI50 [3]: 0.1 to 10 µM

Compound: Cc1ccc(C(=O)Nc2cc(C(F)(F)F)ccn2)cc1C#Cc1ccc2c(c1)ncn2-c1ccccc1 [Compound I-21, 4-methyl-3-((1-phenyl-1H-benzo[d]imidazol-5-yl)ethynyl)-N-(4-(trifluoromethyl)pyridin-2-yl)benzamide]
- GI50 [1]: 0.1 to 10 µM
- GI50 [2]: 0.1 to 10 µM
- GI50 (BAF3 FL KIT EX11DEL): 0.1 to 10 µM
- GI50 [3]: 0.1 to 10 µM

Compound: Cc1ccc(C(=O)Nc2ccc(CN3CCCC3)c(C(F)(F)F)c2)cc1C#Cc1ccc2c(c1)ncn2-c1cnn(C)c1 [Compound I-29, 4-methyl-3-((1-(1-methyl-1H-pyrazol-4-yl)-1H-benzo[d]imidazol-5-yl)ethynyl)-N-(4-(pyrrolidin-1-ylmethyl)-3-(trifluoromethyl)phenyl)benzamide]
- GI50 [1]: 0.05 to 0.1 µM
- GI50 [2]: 0.01 to 0.05 µM
- GI50 (BAF3 FL KIT EX11DEL): 0.01 to 0.05 µM
- GI50 [3]: 0.01 to 0.05 µM

Compound: Cc1ccc(C(=O)Nc2cc(C(F)(F)F)ccn2)cc1C#Cc1ccc2ncn(C)c2c1 [Compound I-11, 4-methyl-3-((1-methyl-1H-benzo[d]imidazol-6-yl)ethynyl)-N-(4-(trifluoromethyl)pyridin-2-yl)benzamide]
- GI50 [1]: 0.1 to 10 µM
- GI50 [2]: 0.1 to 10 µM
- GI50 (BAF3 FL KIT EX11DEL): 0.1 to 10 µM
- GI50 [3]: 0.1 to 10 µM

Compound: Cc1ccc(NC(=O)c2cc(C(F)(F)F)ccn2)cc1C#Cc1ccc2c(c1)ncn2-c1cnn(CCO)c1 [Compound I-39, N-(3-((1-(1-(2-hydroxyethyl)-1H-pyrazol-4-yl)-1H-benzo[d]imidazol-5-yl)ethynyl)-4-methylphenyl)-4-(trifluoromethyl)picolinamide]
- GI50 [1]: 0.01 to 0.05 µM
- GI50 [2]: < 0.01 µM
- GI50 (BAF3 FL KIT EX11DEL): < 0.01 µM
- GI50 [3]: 0.01 to 0.05 µM

Compound: Cc1ccc(C(=O)Nc2cc(C(F)(F)F)ccn2)cc1C#Cc1ccc2c(c1)ncn2-c1cnn(C2CCNCC2)c1 [Compound I-26, 4-methyl-3-((1-(1-(piperidin-4-yl)-1H-pyrazol-4-yl)-1H-benzo[d]imidazol-5-yl)ethynyl)-N-(4-(trifluoromethyl)pyridin-2-yl)benzamide]
- GI50 [1]: 0.01 to 0.05 µM
- GI50 [2]: 0.01 to 0.05 µM
- GI50 (BAF3 FL KIT EX11DEL): < 0.01 µM
- GI50 [3]: 0.01 to 0.05 µM

Compound: CCn1cnc2cc(C#Cc3cc(C(=O)Nc4cc(C(F)(F)F)ccn4)ccc3C)ccc21 [Compound I-7, 3-((1-ethyl-H-benzo[d]imidazol-5-yl)ethynyl)-4-methyl-N-(4-(trifluoromethyl)pyridin-2-yl)benzamide]
- GI50 [1]: 0.1 to 10 µM
- GI50 [2]: 0.05 to 0.1 µM
- GI50 (BAF3 FL KIT EX11DEL): 0.01 to 0.05 µM
- GI50 [3]: 0.1 to 10 µM

Compound: Cc1ccc(NC(=O)c2cc(C(F)(F)F)ccn2)cc1C#Cc1ccc2c(c1)ncn2-c1cnn(C2CCN(C)CC2)c1 [Compound I-40]
- GI50 [1]: 0.1 to 10 µM
- GI50 [2]: 0.01 to 0.05 µM
- GI50 (BAF3 FL KIT EX11DEL): < 0.01 µM
- GI50 [3]: 0.1 to 10 µM

Compound: Cc1ccc(C(=O)Nc2cc(C(F)(F)F)ccn2)cc1C#Cc1ccc2c(c1)ncn2-c1cn[nH]c1 [Compound I-35, 3-((1-(1H-pyrazol-4-yl)-1H-benzo[d]imidazol-5-yl)ethynyl)-4-methyl-N-(4-(trifluoromethyl)pyridin-2-yl)benzamide]
- GI50 [1]: 0.01 to 0.05 µM
- GI50 [2]: 0.01 to 0.05 µM
- GI50 (BAF3 FL KIT EX11DEL): < 0.01 µM
- GI50 [3]: 0.01 to 0.05 µM

Compound: Cc1ccc(C(=O)Nc2cc(C(F)(F)F)ccn2)cc1C#Cc1ccc2c(c1)ncn2C1CC1 [Compound I-13, 3-((1-cyclopropyl-1H-benzo[d]imidazol-5-yl)ethynyl)-4-methyl-N-(4-(trifluoromethyl)pyridin-2-yl)benzamide]
- GI50 [1]: 0.1 to 10 µM
- GI50 [2]: 0.1 to 10 µM
- GI50 (BAF3 FL KIT EX11DEL): 0.01 to 0.05 µM
- GI50 [3]: 0.1 to 10 µM

Compound: CCN(CC)CCn1cc(-n2cnc3cc(C#Cc4cc(NC(=O)c5cc(C(F)(F)F)ccn5)ccc4C)ccc32)cn1 [Compound I-42, N-(3-((1-(1-(2-(diethylamino)ethyl)-1H-pyrazol-4-yl)-1H-benzo[d]imidazol-5-yl)ethynyl)-4-methylphenyl)-4-(trifluoromethyl)picolinamide]
- GI50 [1]: 0.05 to 0.1 µM
- GI50 [2]: 0.01 to 0.05 µM
- GI50 (BAF3 FL KIT EX11DEL): 0.01 to 0.05 µM
- GI50 [3]: 0.1 to 10 µM

Compound: Cc1ccc(C(=O)Nc2cc(C(F)(F)F)ccn2)cc1C#Cc1ccc2c(c1)ncn2-c1cn(C)cn1 [Compound I-23, 4-methyl-3-((1-(1-methyl-1H-imidazol-4-yl)-1H-benzo[d]imidazol-5-yl)ethynyl)-N-(4-(trifluoromethyl)pyridin-2-yl)benzamide]
- GI50 [1]: 0.01 to 0.05 µM
- GI50 [2]: < 0.01 µM
- GI50 (BAF3 FL KIT EX11DEL): < 0.01 µM
- GI50 [3]: 0.01 to 0.05 µM

Compound: Cc1ccc(C(=O)Nc2cc(C(F)(F)F)ccn2)cc1C#Cc1ccc2c(c1)ncn2-c1cnn(C)c1 [Compound I-17, 4-methyl-3-((1-(1-methyl-1H-pyrazol-4-yl)-1H-benzo[d]imidazol-5-yl)ethynyl)-N-(4-(trifluoromethyl)pyridin-2-yl)benzamide]
- GI50 [1]: 0.01 to 0.05 µM
- GI50 [2]: 0.01 to 0.05 µM
- GI50 (BAF3 FL KIT EX11DEL): 0.01 to 0.05 µM
- GI50 [3]: 0.05 to 0.1 µM

Compound: Cc1ccc(NC(=O)c2cc(C(F)(F)F)ccn2)cc1C#Cc1ccc2c(c1)ncn2-c1cn[nH]c1 [Compound I-43, N-(3-((1-(1H-pyrazol-4-yl)-1H-benzo[d]imidazol-5-yl)ethynyl)-4-methylphenyl)-4-(trifluoromethyl)picolinamide]
- GI50 [1]: 0.1 to 10 µM
- GI50 [2]: 0.05 to 0.1 µM
- GI50 (BAF3 FL KIT EX11DEL): < 0.01 µM
- GI50 [3]: 0.05 to 0.1 µM

Compound: Cn1cc(-n2cnc3cc(C#Cc4cc(C(=O)Nc5cc(C(F)(F)F)ccn5)ccc4F)ccc32)cn1 [Compound I-51, 4-fluoro-3-((1-(1-methyl-1H-pyrazol-4-yl)-1H-benzo[d]imidazol-5-yl)ethynyl)-N-(4-(trifluoromethyl)pyridin-2-yl)benzamide]
- GI50 [1]: 0.01 to 0.05 µM
- GI50 [2]: < 0.01 µM
- GI50 (BAF3 FL KIT EX11DEL): < 0.01 µM
- GI50 [3]: 0.1 to 10 µM

Compound: Cn1cc(-n2cnc3cc(C#Cc4cccc(NC(=O)c5cc(C(F)(F)F)ccn5)c4)ccc32)cn1 [Compound I-49, N-(3-((1-(1-methyl-1H-pyrazol-4-yl)-1H-benzo[d]imidazol-5-yl)ethynyl)phenyl)-4-(trifluoromethyl)picolinamide]
- GI50 [1]: 0.05 to 0.1 µM
- GI50 [2]: 0.01 to 0.05 µM
- GI50 (BAF3 FL KIT EX11DEL): < 0.01 µM
- GI50 [3]: 0.1 to 10 µM

Compound: Cc1ccc(C(=O)Nc2cc(C(F)(F)F)ccn2)cc1C#Cc1ccc2c(c1)ncn2CCN1CCOCC1 [Compound I-5, 4-methyl-3-((1-(2-morpholinoethyl)-1H-benzo[d]imidazol-5-yl)ethynyl)-N-(4-(trifluoromethyl)pyridin-2-yl)benzamide]
- GI50 [1]: 0.1 to 10 µM
- GI50 [2]: 0.1 to 10 µM
- GI50 (BAF3 FL KIT EX11DEL): 0.05 to 0.1 µM
- GI50 [3]: 0.1 to 10 µM
